Assay results: ChEMBL document CHEMBL1127253, “Synthesis and in vitro gastrointestinal motility enhancing activity of 3-aryl-2-imidazolidinylidene propanedinitrile derivatives” (Bioorg Med Chem Lett, 1994)

Key:
Cavia porcellus = species: Cavia porcellus; assay: In vitro gastrointestinal motility enhancing activity expressed as concentration of compound producing 30% potentiation of contractions induced by electrical stimulation in guinea pig; assay type: functional
Acetylcholinesterase = molecular target: T1, Acetylcholinesterase (Rattus norvegicus, UniProt P37136); assay: Inhibitory activity against acetylcholinesterase (AChE) from rat brain was determined
T1 sequence (P37136 whole entry): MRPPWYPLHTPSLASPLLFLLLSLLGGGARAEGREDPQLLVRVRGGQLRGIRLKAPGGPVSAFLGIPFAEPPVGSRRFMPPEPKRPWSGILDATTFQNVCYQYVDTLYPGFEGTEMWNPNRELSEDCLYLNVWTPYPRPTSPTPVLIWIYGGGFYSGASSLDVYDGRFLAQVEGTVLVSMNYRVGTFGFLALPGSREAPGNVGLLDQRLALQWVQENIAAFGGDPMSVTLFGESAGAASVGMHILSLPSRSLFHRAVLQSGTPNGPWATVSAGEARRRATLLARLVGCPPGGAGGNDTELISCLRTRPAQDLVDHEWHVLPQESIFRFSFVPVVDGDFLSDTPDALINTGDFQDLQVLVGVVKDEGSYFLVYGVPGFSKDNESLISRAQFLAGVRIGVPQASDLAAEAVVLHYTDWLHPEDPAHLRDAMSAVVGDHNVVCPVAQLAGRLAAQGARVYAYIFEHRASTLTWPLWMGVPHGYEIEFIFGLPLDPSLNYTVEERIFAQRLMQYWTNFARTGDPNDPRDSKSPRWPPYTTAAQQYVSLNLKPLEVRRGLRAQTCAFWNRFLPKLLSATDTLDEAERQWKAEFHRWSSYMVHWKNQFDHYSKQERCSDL

In the case of `N#CC(C#N)=C1NCCN1CCNCc1ccc(CN2CCCCC2)o1`, the EC30 (Cavia porcellus) is reported as 16 nM and the IC50 (Acetylcholinesterase) is reported as 30 nM.
With `COc1ccccc1N1CCN(CCNCc2ccc(CN3CCCCC3)o2)C1=C(C#N)C#N` the EC30 (Cavia porcellus) was 490 nM and the IC50 (Acetylcholinesterase) was 66 nM.
For `COc1cccc(N2CCN(CCNCc3ccc(CN4CCCCC4)o3)C2=C(C#N)C#N)c1`, the EC30 (Cavia porcellus) was 14 nM and the IC50 (Acetylcholinesterase) was 14 nM.
`Cc1cccc(N2CCN(CCNCc3ccc(CN4CCCCC4)o3)C2=C(C#N)C#N)c1` was tested, and the EC30 (Cavia porcellus) was 19 nM and the IC50 (Acetylcholinesterase) was 13 nM.
For `COc1ccc(N2CCN(CCNCc3ccc(CN4CCCCC4)o3)C2=C(C#N)C#N)cc1`, the EC30 (Cavia porcellus) was 12 nM and the IC50 (Acetylcholinesterase) was 19 nM.
`Cc1ccc(N2CCN(CCNCc3ccc(CN4CCCCC4)o3)C2=C(C#N)C#N)cc1` showed an EC30 (Cavia porcellus) of 52 nM and an IC50 (Acetylcholinesterase) of 2.2 nM.
Molecule `N#CC(C#N)=C1N(CCNCc2ccc(CN3CCCCC3)o2)CCN1c1ccccc1` has an EC30 (Cavia porcellus) of 10 nM and an IC50 (Acetylcholinesterase) of 14 nM.
